Results reported in ChEMBL document CHEMBL1201862, “PubChem BioAssay data set” (2004).
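Assay format: 96-well plates, 48-hour exposure. Here, GI50 denotes the concentration required for 50% inhibition of growth.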 Activity calls are given as the source filed them. Rule as the data show it: active = GI50 up to about 1.1 µM and inactive = higher.

Key:
Assay in all cases: growth of human tumour cells (NCI), 48 h
[1] = test system: MOLT-4
[2] = test system: SR
[3] = test system: PC-3
[4] = test system: TK-10
[5] = test system: U-251
[6] = test system: HT-29
[7] = test system: CCRF-CEM
[8] = test system: Hs-578T
[9] = test system: SK-MEL-2
[10] = test system: MDA-MB-435
[11] = test system: UO-31
[12] = test system: SW-620
[13] = test system: COLO 205
[14] = test system: MDA-MB-231
[15] = test system: LOX IMVI
[16] = test system: IGROV-1
[17] = test system: NCI-H460
[18] = test system: BT-549
[19] = test system: UACC-62
[20] = test system: ACHN
[21] = test system: OVCAR-5
[22] = test system: NCI/ADR-RES
[23] = test system: KM12
[24] = test system: OVCAR-4
[25] = test system: DU-145
[26] = test system: OVCAR-3
[27] = test system: NCI-H226
[28] = test system: 786-0
[29] = test system: SF-295
[30] = test system: RPMI-8226
[31] = test system: K562
[32] = test system: SNB-19
[33] = test system: A498
[34] = test system: M14
[35] = test system: SF-539
[36] = test system: CAKI-1
[37] = test system: HOP-62
[38] = test system: HCC 2998
[39] = test system: SK-MEL-5
[40] = test system: HCT-116
[41] = test system: HL-60
[42] = test system: NCI-H522
[43] = test system: UACC-257
[44] = test system: A549
[45] = test system: SK-MEL-28
[46] = test system: SNB-75
[47] = test system: SF-268
[48] = test system: Malme-3M
[49] = test system: T47D
[50] = test system: MCF7
[51] = test system: NCI-H23
[52] = test system: HOP-92
[53] = test system: EKVX
[54] = test system: HCT-15
[55] = test system: MDA-N
[56] = test system: RXF 393
[57] = test system: OVCAR-8
[58] = test system: SN12C

C/C=C(/C)C(=O)OC1CC(C)[C@H]2CC(=O)C(C)=C2CC1C(C)(C)OC(C)=O (stereo partly drawn)
GI50 [1]: 26.2 µM (inactive)
GI50 [2]: 23 µM (inactive)
GI50 [3]: 31.3 µM (inactive)
GI50 [4]: 28.8 µM (inactive)
GI50 [5]: 38.1 µM (inactive)
GI50 [6]: 35.5 µM (inactive)
GI50 [7]: 25.6 µM (inactive)
GI50 [8]: 35.4 µM (inactive)
GI50 [9]: 3.95 µM (inactive)
GI50 [10]: 28 µM (inactive)
GI50 [11]: 23.5 µM (inactive)
GI50 [12]: 43.7 µM (inactive)
GI50 [13]: 17.9 µM (inactive)
GI50 [14]: 31.7 µM (inactive)
GI50 [15]: 17.9 µM (inactive)
GI50 [16]: 53.8 µM (inactive)
GI50 [17]: 19.3 µM (inactive)
GI50 [18]: 31 µM (inactive)
GI50 [19]: 21.8 µM (inactive)
GI50 [20]: 35.6 µM (inactive)
GI50 [21]: > 100 µM (inactive)
GI50 [22]: 22.8 µM (inactive)
GI50 [23]: 25.9 µM (inactive)
GI50 [24]: 22.2 µM (inactive)
GI50 [25]: 81.1 µM (inactive)
GI50 [26]: 20.3 µM (inactive)
GI50 [27]: 37.4 µM (inactive)
GI50 [28]: 43.8 µM (inactive)
GI50 [29]: 24.7 µM (inactive)
GI50 [30]: 22.9 µM (inactive)
GI50 [31]: 32.6 µM (inactive)
GI50 [32]: 34.4 µM (inactive)
GI50 [33]: 20.2 µM (inactive)
GI50 [34]: 29.2 µM (inactive)
GI50 [35]: 20.7 µM (inactive)
GI50 [36]: 37.1 µM (inactive)
GI50 [37]: 28.9 µM (inactive)
GI50 [38]: 22.6 µM (inactive)
GI50 [39]: 15.9 µM (inactive)
GI50 [40]: 19.6 µM (inactive)
GI50 [41]: 21.4 µM (inactive)
GI50 [42]: 19.5 µM (inactive)
GI50 [43]: 20.9 µM (inactive)
GI50 [44]: 30.3 µM (inactive)
GI50 [45]: 31 µM (inactive)
GI50 [46]: 44.4 µM (inactive)
GI50 [47]: 58.2 µM (inactive)
GI50 [48]: 19.3 µM (inactive)
GI50 [49]: 15.4 µM (inactive)
GI50 [50]: 40.6 µM (inactive)
GI50 [51]: 74.8 µM (inactive)
GI50 [52]: 19.6 µM (inactive)
GI50 [53]: 39.1 µM (inactive)
GI50 [54]: 19.7 µM
GI50 [55]: 34.2 µM (inactive)
GI50 [56]: 22.5 µM (inactive)
GI50 [57]: 30.8 µM (inactive)
GI50 [58]: 42 µM (inactive)
